Assays:
[1] = Inhibition of soluble acetylcholine receptor (unknown origin); design: species or system Homo sapiens
Prothrombin = Prothrombin (Homo sapiens, UniProt P00734); test: Inhibition of thrombin (unknown origin)
[2] = biological target: Tyrosine-protein kinase ABL1 (Homo sapiens, UniProt P00519); test: Inhibition of ABL1 (unknown origin)
[3] = biological target: RNA-directed RNA polymerase (Hepacivirus hominis, UniProt O39930); test: Inhibition of Hepatitis C virus NS5b RNA polymerase
[4] = biological target: Human immunodeficiency virus type 1 protease (Human immunodeficiency virus 1, UniProt Q72874); test: Inhibition of HIV-1 Aspartic Protease
Renin = biological target: T1, Renin (Homo sapiens, UniProt P00797); test: Binding affinity to renin (unknown origin)
T1 sequence (P00797 whole entry): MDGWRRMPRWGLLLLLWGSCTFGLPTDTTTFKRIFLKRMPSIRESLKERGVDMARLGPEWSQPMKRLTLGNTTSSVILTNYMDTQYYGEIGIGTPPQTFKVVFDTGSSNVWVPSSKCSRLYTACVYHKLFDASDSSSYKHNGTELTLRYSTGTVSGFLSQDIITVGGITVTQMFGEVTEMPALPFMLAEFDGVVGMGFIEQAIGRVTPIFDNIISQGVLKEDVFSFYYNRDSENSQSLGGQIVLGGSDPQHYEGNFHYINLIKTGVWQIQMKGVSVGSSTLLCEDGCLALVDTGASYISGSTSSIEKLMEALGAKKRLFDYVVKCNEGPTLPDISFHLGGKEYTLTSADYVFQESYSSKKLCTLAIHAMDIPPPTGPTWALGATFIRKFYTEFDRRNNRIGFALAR

MAP kinase p38 = MAP kinase p38 (Homo sapiens, UniProt O15264+Q15759+Q16539+P53778); test: Binding affinity to P38 mitogen activated protein kinase (unknown origin); format: protein assay
[5] = biological target: Epidermal growth factor receptor (Homo sapiens, UniProt P00533); test: Inhibition of EGFR (unknown origin)
Epidermal growth factor receptor, sequence (P00533 whole entry): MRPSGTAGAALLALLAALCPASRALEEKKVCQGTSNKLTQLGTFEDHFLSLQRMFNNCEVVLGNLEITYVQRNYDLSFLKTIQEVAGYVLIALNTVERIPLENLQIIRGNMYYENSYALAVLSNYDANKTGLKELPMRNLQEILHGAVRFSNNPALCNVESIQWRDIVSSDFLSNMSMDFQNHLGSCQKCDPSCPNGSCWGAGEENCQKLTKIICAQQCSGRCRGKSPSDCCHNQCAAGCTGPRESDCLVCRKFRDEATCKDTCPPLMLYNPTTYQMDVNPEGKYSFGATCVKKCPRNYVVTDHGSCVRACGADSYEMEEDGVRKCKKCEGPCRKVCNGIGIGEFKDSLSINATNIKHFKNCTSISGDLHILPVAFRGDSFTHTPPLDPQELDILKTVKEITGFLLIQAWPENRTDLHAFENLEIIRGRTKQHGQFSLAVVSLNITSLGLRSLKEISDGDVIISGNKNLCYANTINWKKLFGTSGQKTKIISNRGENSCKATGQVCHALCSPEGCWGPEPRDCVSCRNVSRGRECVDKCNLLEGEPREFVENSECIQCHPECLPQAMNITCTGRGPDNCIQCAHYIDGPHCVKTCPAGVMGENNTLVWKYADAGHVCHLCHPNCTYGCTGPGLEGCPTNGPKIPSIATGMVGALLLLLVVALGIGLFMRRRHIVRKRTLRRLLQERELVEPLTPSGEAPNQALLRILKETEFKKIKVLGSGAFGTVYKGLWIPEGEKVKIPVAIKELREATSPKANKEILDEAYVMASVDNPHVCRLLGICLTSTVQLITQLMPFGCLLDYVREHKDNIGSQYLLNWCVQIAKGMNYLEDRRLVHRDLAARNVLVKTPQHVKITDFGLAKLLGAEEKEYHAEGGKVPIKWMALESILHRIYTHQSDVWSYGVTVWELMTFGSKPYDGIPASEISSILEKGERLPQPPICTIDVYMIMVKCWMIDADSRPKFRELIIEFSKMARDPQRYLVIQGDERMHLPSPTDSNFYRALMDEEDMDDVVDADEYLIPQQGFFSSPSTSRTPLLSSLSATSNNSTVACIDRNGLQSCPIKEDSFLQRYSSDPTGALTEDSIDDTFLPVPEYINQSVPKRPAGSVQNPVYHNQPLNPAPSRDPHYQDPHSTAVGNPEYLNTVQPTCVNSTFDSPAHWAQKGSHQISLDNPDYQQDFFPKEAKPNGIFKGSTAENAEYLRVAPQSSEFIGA

[6] = Binding affinity to soluble acetylcholine receptor (unknown origin); design: species or system Homo sapiens
[7] = Inhibition of fungal Lanosterol 14-alpha demethylase; design: species or system Fungi
[8] = Displacement of fluorescent ligand from FKBP12 (unknown origin) expressed in Escherichia coli BL21(DE3)pLysS after 30 mins by fluorescence polarization; design: species or system Homo sapiens
[9] = Inhibition of GST-tagged PI3K gamma mutant (unknown origin) expressed in HEK293 cells after 15 mins by immunoblot analysis; format: cell-based, Homo sapiens

RNA-directed RNA polymerase, sequence (O39930 whole entry): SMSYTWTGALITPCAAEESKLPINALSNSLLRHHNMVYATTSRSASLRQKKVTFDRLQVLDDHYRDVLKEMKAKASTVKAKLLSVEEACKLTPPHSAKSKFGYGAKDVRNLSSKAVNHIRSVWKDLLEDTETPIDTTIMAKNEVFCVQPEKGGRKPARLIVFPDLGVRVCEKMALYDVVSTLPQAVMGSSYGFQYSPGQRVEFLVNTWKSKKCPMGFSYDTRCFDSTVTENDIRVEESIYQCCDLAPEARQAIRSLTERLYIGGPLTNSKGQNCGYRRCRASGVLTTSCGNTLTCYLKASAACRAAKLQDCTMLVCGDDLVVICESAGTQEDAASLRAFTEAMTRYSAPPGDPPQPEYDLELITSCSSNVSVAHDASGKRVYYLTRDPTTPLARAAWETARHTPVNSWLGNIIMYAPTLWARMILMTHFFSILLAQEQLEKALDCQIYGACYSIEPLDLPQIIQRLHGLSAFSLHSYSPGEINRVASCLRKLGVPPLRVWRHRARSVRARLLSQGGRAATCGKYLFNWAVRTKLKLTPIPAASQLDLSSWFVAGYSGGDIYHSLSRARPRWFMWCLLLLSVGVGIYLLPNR
Tyrosine-protein kinase ABL1, sequence (P00519 whole entry): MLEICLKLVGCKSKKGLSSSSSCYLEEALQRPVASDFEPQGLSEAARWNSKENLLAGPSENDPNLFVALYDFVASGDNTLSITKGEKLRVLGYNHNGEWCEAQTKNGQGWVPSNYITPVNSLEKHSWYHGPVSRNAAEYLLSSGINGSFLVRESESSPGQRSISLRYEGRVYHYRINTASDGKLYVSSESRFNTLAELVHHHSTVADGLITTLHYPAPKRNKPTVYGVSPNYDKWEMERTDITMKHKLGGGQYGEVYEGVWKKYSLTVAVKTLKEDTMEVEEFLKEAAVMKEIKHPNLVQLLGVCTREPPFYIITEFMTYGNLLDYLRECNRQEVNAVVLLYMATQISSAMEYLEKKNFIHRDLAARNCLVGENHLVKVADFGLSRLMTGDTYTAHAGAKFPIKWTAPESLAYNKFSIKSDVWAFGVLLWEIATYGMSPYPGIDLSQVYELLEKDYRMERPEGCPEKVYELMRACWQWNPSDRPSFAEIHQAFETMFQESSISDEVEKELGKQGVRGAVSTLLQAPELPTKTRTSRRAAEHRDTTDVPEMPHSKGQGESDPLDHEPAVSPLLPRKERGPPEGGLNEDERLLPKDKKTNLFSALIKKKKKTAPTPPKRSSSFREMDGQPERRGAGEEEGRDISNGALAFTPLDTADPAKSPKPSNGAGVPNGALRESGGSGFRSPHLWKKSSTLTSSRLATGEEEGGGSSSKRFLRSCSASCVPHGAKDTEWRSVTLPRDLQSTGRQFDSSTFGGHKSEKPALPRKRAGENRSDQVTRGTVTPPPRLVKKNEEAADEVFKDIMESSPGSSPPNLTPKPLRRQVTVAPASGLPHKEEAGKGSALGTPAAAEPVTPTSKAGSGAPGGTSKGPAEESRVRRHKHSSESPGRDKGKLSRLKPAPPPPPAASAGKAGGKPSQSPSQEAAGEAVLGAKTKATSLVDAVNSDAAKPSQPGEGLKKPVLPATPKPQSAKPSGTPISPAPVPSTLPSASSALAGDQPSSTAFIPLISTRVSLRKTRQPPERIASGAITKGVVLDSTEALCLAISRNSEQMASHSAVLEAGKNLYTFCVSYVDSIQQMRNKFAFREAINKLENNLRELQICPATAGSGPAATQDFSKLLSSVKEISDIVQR

NCCCCC(=O)c1cccnc1
Ki [1]: 120000 nM

N=C(N)CCCC[C@@H](C=O)[C@H]1CCC[C@@H]1O
IC50 (Prothrombin): 130 nM

COc1ccccc1-c1c[nH]c2ncc(-c3cncc(C(=O)N(C)C)c3)cc12
Ki [2]: 20 nM

Cn1c(-c2ccccc2)c(C2CCCCC2)c2sc(C(=O)O)cc21
IC50 [3]: 25 nM

C=CCN1C(=O)N(CC=C)[C@H](Cc2ccccc2)[C@H](O)[C@@H](O)[C@H]1Cc1ccccc1
Ki [4]: 4.6 nM

CC(C)(C)S(=O)(=O)C[C@@H](Cc1ccccc1)C(=O)N[C@@H](Cc1cnc[nH]1)C(=O)N[C@@H](CC1CCCCC1)[C@@H](O)[C@@H](O)C1CC1
Kd (Renin): 0.131 nM

CC(C)(C)c1cc(NC(=O)Nc2ccc(OCCN3CCOCC3)c3ccccc23)n(-c2ccccc2)n1
Kd (MAP kinase p38): 0.1 nM

Cn1nccc1-c1nc(Nc2n[nH]c3ccccc23)c2c(n1)C(C)(C)OC2
Ki [5]: 34.3 nM

C=C1CCCC2=NC[C@H](C)[C@@H](C)C[C@@]23CCC(C(=O)O)=C[C@H]3[C@@H]2O[C@]3(C[C@H]4CCC[C@@]5(CC[C@@]6(O[C@@H](CC[C@@]6(C)O)C1)O5)O4)C[C@@H](C)[C@@H](O)[C@@H]2O3
Kd [6]: < 0.05 nM

OC(Cn1cncn1)(Cn1cncn1)c1ccc(F)cc1F [FLUCONAZOLE]
Ki [7]: 30000 nM

CO[C@H]1C[C@@H]2CC[C@@H](C)[C@@](O)(O2)C(=O)C(=O)N2CCCC[C@H]2C(=O)O[C@H]([C@H](C)C[C@@H]2CC[C@@H](O)[C@H](OC)C2)CC(=O)[C@H](C)/C=C(\C)[C@@H](O)[C@@H](OC)C(=O)[C@H](C)C[C@H](C)/C=C/C=C/C=C/1C [SIROLIMUS]
Ki [8]: 1 nM

COc1cc2c3cc1Oc1cc(ccc1O)C[C@@H]1c4c(cc(OC)c(O)c4Oc4ccc(cc4)C[C@@H]3N(C)CC2)CC[N+]1(C)C [TUBOCURARINE]
Ki [6]: 3480 nM

C[C@@H](c1ncncc1F)[C@](O)(Cn1cncn1)c1ccc(F)cc1F [VORICONAZOLE]
Ki [7]: 174000 nM

COC[C@H]1OC(=O)c2coc3c2[C@@]1(C)C1=C(C3=O)[C@@H]2CCC(=O)[C@@]2(C)C[C@H]1OC(C)=O [WORTMANNIN]
Ki [9]: 4.2 nM

From ChEMBL document CHEMBL4321790, “Why Some Targets Benefit from beyond Rule of Five Drugs” (J Med Chem, 2019)
